# Values joined by “and” are separate entries in the source; they are usually repeats but may differ in a detail not shown here. Equal values may be shown once.
# Tested on: NAD and NADP in whole blood
# Conditions: hypercholesterolemia subjects, 750 mg of niacin twice daily for two months
smiles,measurement,setting,value
"O=C(O)c1cccnc1 [niacin, pyridine 3-carboxylic acid]",Mean niacin number,pretherapy mean 175,665 and 665 ± 115
same,Range observed (niacin number),pretherapy range 131-242,517-746

# Reference: patent US6428972B2, “Biochemical method to measure niacin status in a biological sample” (Niadyne, Inc., priority 1998, dated 2002)
